In brackets after ≈: the same amount, converted by molar mass. Like-named read-outs stand apart in the source and are kept apart here.
Assays:
S. infantis 1371/1 = test: Antimicrobial microdilution assay (MIC/MBC); type: cell-based, Salmonella Infantis; settings: Salmonella enterica, 1371/1; for MIC: 37 °C, 24 h, read-out: MIC; for MBC: subcultivation, 24 h at 37 °C, read-out: MBC
Experimental: (§1) The bacterial suspension (0.5 Mc Farland) was prepared, and twenty-fold dilutions of these suspensions were mixed in a 1:10 ratio with the corresponding polyphenol dilution (0.0039–1 mg/mL). Microtiter plates were incubated at 37 °C for 24 h. The lowest concentrations without visible growth (under a binocular microscope) were defined as MICs. The bactericidal concentrations (MBCs) were determined by serial subcultivation of 2 μL of the well’s content and further incubation for 24 h at 37 °C. Streptomycin (SigmaAldrich, Darmstadt, Germany) was used as a positive control. The polyphenols were obtained from Extrasynthese, Rhone, France (rutin, isoquercitrin) and SigmaAldrich, Germany (hesperetin, hesperidin, naringenin, naringin, taxifolin, morin, chlorogenic acid, ferulic acid, p-coumaric acid, and gallic acid). The stock compounds were prepared in ethanol (30%), and adequate ethanol concentrations were used as the negative control in the assays. Experiments were done in triplicate.

[1] = tested on: Methicillin resistant S. aureus IBRS MRSA 011; test: Antimicrobial microdilution assay (MIC/MBC); type: cell-based, Staphylococcus aureus; settings: Staphylococcus aureus, MRSA
Experimental: as §1

P. aeruginosa MTCC 2488 = tested on: P. aeruginosa MTCC 2488; parameters: method as in PMID 32057619; settings: cited from earlier work
E. coli IBRS E003 = test: Antimicrobial microdilution assay (MIC/MBC); type: cell-based, Escherichia coli; settings: Escherichia coli, IBRSE003; for MIC: 37 °C, 24 h, read-out: MIC; for MBC: subcultivation, 24 h at 37 °C, read-out: MBC
Experimental: as §1

E. coli IMD989 = test: Antimicrobial microdilution assay (MIC/MBC); type: cell-based, Escherichia coli; settings: Escherichia coli, IMD989; for MIC: 37 °C, 24 h, read-out: MIC; for MBC: subcultivation, 24 h at 37 °C, read-out: MBC
Experimental: as §1

P. aeruginosa MMA83 = test: Antimicrobial microdilution assay (MIC/MBC); type: cell-based, Pseudomonas aeruginosa; settings: for MIC: 37 °C, 24 h, read-out: MIC; for MBC: subcultivation, 24 h at 37 °C
Experimental: as §1

P. aeruginosa IBRS P001 = test: Antimicrobial microdilution assay (MIC/MBC); type: cell-based, Pseudomonas aeruginosa; settings: Pseudomonas aeruginosa, IBRSP001; for MIC: 37 °C, 24 h, read-out: MIC; for MBC: subcultivation, 24 h at 37 °C, read-out: MBC
Experimental: as §1

[2] = tested on: P. aeruginosa IBRS P001 biofilm; test: Crystal violet antibiofilm assay (biofilm formation); type: cell-based, Pseudomonas aeruginosa; settings: MIC and sub-MIC, 24 h, crystal violet, Figure 1
Experimental: After incubation, each well was washed twice with sterile PBS (phosphate-buffered saline, pH 7.4) and fixed with methanol for 10 min. After removal of methanol the plate was air-dried. The biofilm was stained with 0.1% crystal violet (Bio-Merieux, Marcy l’Etoile, France) for 30 min. The plate was washed with water, air dried, and the stain was dissolved with 200 μL of 96% ethanol (Zorka, Sabac, Serbia). The absorbance was read at 620 nm on a Multiskan™ FC microplate photometer (Thermo Scientific™, Waltham, MA, USA). The results are presented as biofilm forming capacity (%) compared to control.

HaCaT cells = test: Cytotoxicity in HaCaT cell line (crystal violet assay); type: cell-based, human; settings: HaCaT; for IC50: Homo sapiens, 24 h treatment, crystal violet, read-out: IC50 (compound concentration that inhibited 50% of the cell growth)
Experimental: For determination of the polyphenols’ cytotoxic effect, a crystal violet assay was used, with modifications. The cytotoxic effect of polyphenols was analyzed on spontaneously immortalized human skin keratinocytes (HaCaT, AddexBio No. T0020001, San Diego, CA, USA) cell lines. […] Cells (1 × 10^4 cells/well) were seeded in a 96-well plate (Sarstedt, Nümbrecht, Germany) 24 h before treatment. […] Cells were incubated with the compounds for 24 h. […] After crystal violet was removed, the plates were washed in a stream of tap water and left to air-dry at room temperature for 24 h. The absorbance was measured in a microplate reader (Multiskan™ FC Microplate Photometer, Thermo Scientific™) at 590 nm. The results were expressed as IC50 value in μg/mL. The criterion used to categorize the cytotoxic activity polyphenols was as follows: […] All analyses were performed in triplicate; each replicate was also quantified three times. Data were expressed as mean standard deviation, where applicable.

A. baumannii S2/2 = test: Antimicrobial microdilution assay (MIC/MBC); type: cell-based, Acinetobacter baumannii; settings: Acinetobacter baumannii, S2/2; for MIC: 37 °C, 24 h, read-out: MIC; for MBC: subcultivation, 24 h at 37 °C, read-out: MBC
Experimental: as §1

A. baumannii 6077/12 = test: Antimicrobial microdilution assay (MIC/MBC); type: cell-based, Acinetobacter baumannii; settings: Acinetobacter baumannii, 6077/12; for MIC: 37 °C, 24 h, read-out: MIC; for MBC: subcultivation, 24 h at 37 °C, read-out: MBC
Experimental: as §1

A. xylosoxidans 37F = test: Antimicrobial microdilution assay (MIC/MBC); type: cell-based, Achromobacter xylosoxidans; settings: Achromobacter xylosoxidans, 37F; for MIC: 37 °C, 24 h, read-out: MIC; for MBC: subcultivation, 24 h at 37 °C, read-out: MBC
Experimental: as §1

K. pneumoniae Ni9 = test: Antimicrobial microdilution assay (MIC/MBC); type: cell-based, Klebsiella pneumoniae; settings: Klebsiella pneumoniae, NI9; for MIC: 37 °C, 24 h, read-out: MIC; for MBC: subcultivation, 24 h at 37 °C, read-out: MBC
Experimental: as §1

K. pneumoniae IT977 = test: Antimicrobial microdilution assay (MIC/MBC); type: cell-based, Klebsiella pneumoniae; settings: Klebsiella pneumoniae, IT977; for MIC: 37 °C, 24 h, read-out: MIC; for MBC: subcultivation, 24 h at 37 °C, read-out: MBC
Experimental: as §1

[3] = tested on: E. coli (fluoroquinolones and ampicillin-resistant); parameters: method as in A previous investigation; settings: ref A previous investigation; cited from earlier work
[4] = subcultivation, 24 h at 37 °C, read-out: MBC
[5] = Pseudomonas aeruginosa, MMA83, read-out: MBC

Compound	MIC (S. infantis 1371/1) [µg/mL]	MBC (S. infantis 1371/1) [µg/mL]	MIC (E. coli IBRS E003) [µg/mL]	MBC (E. coli IBRS E003) [µg/mL]	MIC (E. coli IMD989) [µg/mL]	MBC (E. coli IMD989) [µg/mL]	MIC (P. aeruginosa MMA83; Pseudomonas aeruginosa, MMA83) [µg/mL]	MBC (P. aeruginosa MMA83; [5]) [µg/mL]	MIC (P. aeruginosa IBRS P001) [µg/mL]	MBC (P. aeruginosa IBRS P001) [µg/mL]	MIC (A. baumannii S2/2) [µg/mL]	MBC (A. baumannii S2/2) [µg/mL]	MIC (A. baumannii 6077/12) [µg/mL]	MBC (A. baumannii 6077/12) [µg/mL]	MIC (A. xylosoxidans 37F) [µg/mL]	MBC (A. xylosoxidans 37F) [µg/mL]	MIC (K. pneumoniae Ni9) [µg/mL]	MBC (K. pneumoniae Ni9) [µg/mL]	MIC (K. pneumoniae IT977) [µg/mL]	MBC (K. pneumoniae IT977) [µg/mL]	further results
C[C@@H]1O[C@@H](O[C@H]2[C@H](Oc3cc(O)c4c(c3)O[C@H](c3ccc(O)cc3)CC4=O)O[C@H](CO)[C@@H](O)[C@@H]2O)[C@H](O)[C@H](O)[C@H]1O [Naringin, naringin]	> 1000	> 1000	> 1000	> 1000	> 1000	> 1000	> 1000	> 1000	250 (≈ 431 µM)	500 (≈ 861 µM)	> 1000	> 1000	> 1000	> 1000	> 1000	> 1000	> 1000	> 1000	> 1000	> 1000	MIC ([1]; 37 °C, 24 h, read-out: MIC): 500 µg/mL (≈ 861 µM); MBC [1, 4]: 1000 µg/mL (≈ 1720 µM); Bactericidal concentration (P. aeruginosa MTCC 2488): 1.4 mg/mL; IC50 (P. aeruginosa MTCC 2488): 570 µg/mL (≈ 982 µM); MBC (P. aeruginosa MMA83): >1000 µg/mL; reduction of biofilm formation (biomass), in words [2]: not significantly altered; IC50 (HaCaT cells): > 1000 µg/mL
[H]/N=C(/N)N[C@H]1[C@H](O)[C@@H](O)[C@H](O[C@@H]2O[C@@H](C)[C@](O)(C=O)[C@H]2O[C@@H]2O[C@@H](CO)[C@H](O)[C@@H](O)[C@@H]2NC)[C@@H](N/C(N)=N\[H])[C@@H]1O [Streptomycin, reference compound]	> 1000	> 1000	100 (≈ 172 µM)	200 (≈ 344 µM)	1000 (≈ 1720 µM)	> 1000	> 1000	> 1000	50 (≈ 86 µM)	100 (≈ 172 µM)	> 1000	> 1000	> 1000	> 1000	> 1000	> 1000	> 1000	> 1000	> 1000	> 1000	MBC ([1]; 24 h): 800 µg/mL (≈ 1380 µM); MIC ([1]; 24 h): 100 µg/mL (≈ 172 µM)
O=C(O)/C=C/c1ccc(O)cc1 [p-Coumaric Acid, p-coumaric acid]	1000 (≈ 6090 µM)	1000 (≈ 6090 µM)	> 1000	> 1000	1000 (≈ 6090 µM)	1000 (≈ 6090 µM)	500 (≈ 3050 µM)	1000 (≈ 6090 µM)	500 (≈ 3050 µM)	1000 (≈ 6090 µM)	500 (≈ 3050 µM)	500 (≈ 3050 µM)	500 (≈ 3050 µM)	500 (≈ 3050 µM)	1000 (≈ 6090 µM)	1000 (≈ 6090 µM)	1000 (≈ 6090 µM)	1000 (≈ 6090 µM)	1000 (≈ 6090 µM)	1000 (≈ 6090 µM)	MIC [3]: 1000 µg/mL (≈ 6090 µM); MIC ([1]; 37 °C, 24 h, read-out: MIC): 500 µg/mL (≈ 3050 µM); MBC [1, 4]: 1000 µg/mL (≈ 6090 µM); cytotoxicity category (HaCaT cells; maximal tested concentrations (1 mg/mL)): no cytotoxicity (IC50 > 501 µg/mL = no cytotoxicity); IC50 (HaCaT cells): > 1000 µg/mL

— publication PMC8952364, “Polyphenols as Inhibitors of Antibiotic Resistant Bacteria—Mechanisms Underlying Rutin Interference with Bacterial Virulence” (Pharmaceuticals, 2022)
